Laboratory results published in ChEMBL document CHEMBL1268926, “An o-aminoanilide analogue of 1α,25-dihydroxyvitamin D(3) functions as a strong vitamin D receptor antagonist” (J Med Chem, 2010).
The source made the active and inactive calls. The calls are words filed in the database; no cut-off is given here.

How the values were obtained:
Tubulin (Homo sapiens) = Tubulin (Homo sapiens) (UniProt P68371+Q9H4B7+P0DPH7+P68366+Q13509+Q71U36+P04350+Q3ZCM7+P07437+P68363+Q9BQE3+Q6PEY2+Q13885+Q9BVA1+Q9BUF5); assay: Inhibition of HDAC in human SCC25 cells assessed as hyperacetylation of tubulin at 1 uM by Western blotting; assay type: cell-based; settings: SCC-25
Vitamin D3 receptor = molecular target: T1, Vitamin D3 receptor (Homo sapiens, UniProt P11473); assay: Binding affinity to VDR-LBD by fluorescence polarization competition assay
T1 sequence (P11473 whole entry): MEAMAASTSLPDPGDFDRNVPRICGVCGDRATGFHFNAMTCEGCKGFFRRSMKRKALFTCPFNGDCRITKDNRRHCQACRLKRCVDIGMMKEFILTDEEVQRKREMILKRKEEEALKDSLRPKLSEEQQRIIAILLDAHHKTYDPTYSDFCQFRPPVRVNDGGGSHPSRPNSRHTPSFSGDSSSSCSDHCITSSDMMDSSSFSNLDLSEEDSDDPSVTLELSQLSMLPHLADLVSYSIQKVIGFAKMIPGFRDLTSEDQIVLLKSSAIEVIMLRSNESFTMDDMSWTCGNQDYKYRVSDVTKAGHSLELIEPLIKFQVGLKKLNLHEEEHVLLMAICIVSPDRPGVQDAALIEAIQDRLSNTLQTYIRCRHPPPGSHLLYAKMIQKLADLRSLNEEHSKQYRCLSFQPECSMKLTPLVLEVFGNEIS

[1] = molecular target: Histone deacetylase (Homo sapiens) (UniProt Q13547+O15379+Q9UBN7+Q92769+Q9UQL6+Q8WUI4+Q9BY41+Q96DB2+P56524+Q9UKV0+Q969S8); assay: Inhibition of HDAC in human SCC4 cells assessed as hyperacetylation of histone H4 at 1 uM by Western blotting; settings: SCC-4
[2] = molecular target: T2, Vitamin D3 receptor (Homo sapiens) (UniProt P11473); assay: Agonist activity at VDR in human SCC25 cells assessed as induction of CYP24 expression at 1 to 10 uM by RT-PCR analysis; assay type: functional, cell-based; settings: SCC-25
T2 sequence (whole entry): T1 sequence (P11473 whole entry)

[3] = molecular target: T2, Vitamin D3 receptor (Homo sapiens); assay: Agonist activity at VDR in human SCC25 cells assessed as induction of CYP24 expression at 1 to 10 uM by semiquantitative analysis; assay type: functional, cell-based; settings: SCC-25
[4] = molecular target: T2, Vitamin D3 receptor (Homo sapiens); settings: 1uM
Description: Inhibition of VDR agonist-mediated AIB1 recruitment to CYP24 promoter in ChIP assay at 1uM

[5] = molecular target: T3, Protein deacetylase HDAC6 (Homo sapiens) (UniProt Q9UBN7); assay: Inhibition of human recombinant HDAC6 up to 1 mM by fluorescence assay
T3 sequence (whole entry): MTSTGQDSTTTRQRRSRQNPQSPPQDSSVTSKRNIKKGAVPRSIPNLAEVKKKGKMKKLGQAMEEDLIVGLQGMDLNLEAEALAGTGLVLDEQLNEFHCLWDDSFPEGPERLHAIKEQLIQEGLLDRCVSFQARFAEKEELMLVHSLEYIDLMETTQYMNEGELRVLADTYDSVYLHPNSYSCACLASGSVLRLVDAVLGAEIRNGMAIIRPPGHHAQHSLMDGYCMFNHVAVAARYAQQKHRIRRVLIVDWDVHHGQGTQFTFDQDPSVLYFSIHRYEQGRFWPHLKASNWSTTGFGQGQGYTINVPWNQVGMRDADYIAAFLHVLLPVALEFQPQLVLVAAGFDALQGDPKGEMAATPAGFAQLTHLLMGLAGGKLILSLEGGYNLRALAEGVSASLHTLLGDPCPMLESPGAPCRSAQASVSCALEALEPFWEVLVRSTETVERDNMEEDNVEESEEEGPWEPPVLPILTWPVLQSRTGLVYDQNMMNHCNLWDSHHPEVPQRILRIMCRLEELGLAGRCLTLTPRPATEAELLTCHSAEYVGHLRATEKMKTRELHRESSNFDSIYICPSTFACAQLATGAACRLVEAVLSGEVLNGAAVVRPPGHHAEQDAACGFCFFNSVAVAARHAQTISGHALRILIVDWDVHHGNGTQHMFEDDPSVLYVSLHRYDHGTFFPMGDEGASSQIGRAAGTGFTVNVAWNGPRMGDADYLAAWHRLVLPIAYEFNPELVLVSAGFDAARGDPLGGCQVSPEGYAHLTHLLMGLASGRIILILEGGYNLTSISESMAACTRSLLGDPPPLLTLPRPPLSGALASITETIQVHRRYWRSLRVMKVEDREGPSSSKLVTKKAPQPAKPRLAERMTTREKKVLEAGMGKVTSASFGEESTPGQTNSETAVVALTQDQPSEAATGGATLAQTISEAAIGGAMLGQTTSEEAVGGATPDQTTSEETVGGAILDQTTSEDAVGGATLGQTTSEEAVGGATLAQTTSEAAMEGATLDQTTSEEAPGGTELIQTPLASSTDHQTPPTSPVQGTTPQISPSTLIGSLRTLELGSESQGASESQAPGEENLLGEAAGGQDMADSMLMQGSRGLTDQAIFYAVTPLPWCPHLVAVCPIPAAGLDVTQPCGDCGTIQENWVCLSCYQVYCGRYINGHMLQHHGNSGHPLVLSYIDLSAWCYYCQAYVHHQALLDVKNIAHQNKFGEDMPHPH

SMILES	inhibition (Tubulin (Homo sapiens))	IC50 (Vitamin D3 receptor)	inhibition [1]	Activity [2]	Activity [3]	inhibition [4]	inhibition [5]
C[C@H](CCCCC(=O)Nc1ccccc1N)[C@H]1CC[C@H]2/C(=C/C=C3C[C@@H](O)C[C@H](O)C3)CCC[C@]12C	Active	248 nM	Active				
C=C1/C(=C\C=C2/CCC[C@]3(C)[C@@H]([C@H](C)/C=C/[C@@H](O)C4(C(=O)OCCCC)CC4)CC[C@@H]23)C[C@@H](O)C[C@@H]1O				Active	Active		
CC(/C=C/C(=O)Nc1ccccc1N)=C\[C@@H](C)[C@H]1CC[C@H]2/C(=C/C=C3CC(O)C[C@H](O)C3)CCC[C@]12C (single isomer, unassigned)	inactive	107 nM	inactive	inactive	inactive	Active	inactive
